From patent US5654420A, “Process for preparing 2'-cyano pyrimidine nucleoside compounds” (Sankyo Company, Limited, priority 1990, dated 1997)
≈ marks a conversion by molar mass, not a printed value. Structures can show the parent of a compound that is named as a salt.

Tested on: KB human oral epidermoid carcinoma
Test: Antitumor activity in vitro (MTT method, 72 h), KB
Format: cell-based
Settings: 37° C., read-out: IC50 (concentration necessary for inhibiting proliferation of the cells to 50%)
Protocol: Antitumor activity was determined in vitro using a human cancer strain. As the culture medium for the cancer cell, an RPMI1640 solution containing 10% of […] bovine fetal serum 50 μg/ml of kanamycin was used. Cancer cells (1×10^4 cells/ml) were innoculated to 1 ml of the culture liquids containing samples at different concentrations, respectively, and cultured in a carbon dioxide gas incubator at 37° C. for 72 hours.
Viability of the cancer cells was determined by MTT method in which the amount of living cells in the culture liquids containing the sample and that in culture liquids containing no sample (blank group) are measured based on the intensity of the visible light using [3-(4,5-dimethylthiazol-2-yl)-2,5-diphenyl-tetrazolium bromide] which develops color in proportion to the number of living cells. The intensity of antitumor activity was expressed by IC50 value (concentration (μg/ml) necessary for inhibiting proliferation of the cells to 50%). The IC50 value was obtained from a graph illustrating the relationship between % proliferation of the cancer cells in the sample containing group (% relative to the blank group) and the concentration (logalithmic) of the sample.
KB: human oral epidermoid carcinoma

| SMILES | IC50 [µg/mL] |
| --- | --- |
| N#C[C@H]1[C@H](O)[C@@H](CO)O[C@H]1n1ccc(N)nc1=O [Example 9, 1-(2'-Cyano-2'-deoxy-β-D-arabinofuranosyl)cytosine monohydrochloride] | 15 |
| Cc1cn([C@@H]2O[C@H](CO)C=C2C#N)c(=O)[nH]c1=O [Example 12, 1-(2'-Cyano-2',3'-deoxy-2',3'-didehydro-β-D-ribofuranosyl)thymine] | 7.6 (≈ 30.5 µM) |
